The test system of one data set is gastric emptying. Nature of the data set: Test 1: gastric emptying enhancing activity (phenol red test meal). In kind it is in vivo, Male Wistar rats. The conditions noted are these: for change in vivo at 2 mg/kg / change in vivo at 0.5 mg/kg / change in vivo at 5 mg/kg / change in vivo at 10 mg/kg / change in vivo at 0.2 mg/kg: po, 0.25 h, 60 min before test meal, rat, read-out: Gastric emptying enhancing activity, Increase (emptying rate vs control); for change in vivo at 2 mg/kg: 2.0 mg/kg p.o.; for change in vivo at 0.5 mg/kg: 0.5 mg/kg p.o.; for change in vivo at 5 mg/kg: 5.0 mg/kg p.o.; for change in vivo at 10 mg/kg: 10.0 mg/kg p.o.; for change in vivo at 0.2 mg/kg: 0.2 mg/kg p.o. As to the method:
The test was carried out according to the method of Scarpignato et al. [cf. Arch. int. Pharmacodyn., 246, 286-294 (1980)].
Male Wistar rats, weighing 130-150 g, were fasted for 18 hours before experimentation, and 1.5 ml of a test meal (phenol red 0.05% in a 1.5% aqueous methylcellulose solution) was given by gastric tube. Fifteen minutes after administration of the meal the stomach was removed and the amount of phenol red remaining in the stomach was measured.
The test compounds, dissolved or suspended in a 0.5% tragacanth solution, were orally administered 60 minutes before administration of the test meal. The rate of gastric emptying was calculated according to the amount of phenol red remaining in the stomach, and the activity of the test compounds was expressed in terms of increase in the emptying rate from the control. The number of animals used was 5 for the control and each dose of metoclopramide hydrochloride monohydrate and 4 for each dose of the other test compounds.

A further data set concerns central nervous system. Nature of the data set: Test 3: effect on the central nervous system (CNS effect), Irwin observation. Particulars: 100 mg/kg, p.o., mouse, 2 hours observation.

The structures appear in SMILES notation.

Method for central nervous system: Male ddY mice, weighing 18-25 g, were used in groups of 3 animals each. […] Psychopharmacologia, 13, 222-227 (1968)], comprehensive observation of behavioral and physiologic states were carried out for 2 hours after the oral treatment with 100 mg/kg of the test compound, dissolved or suspended in a 0.5% tragacanth solution. Liability of the test compounds to the central nervous system effect was expressed with the following marks, according to the total sum of potencies for the individually analyzed effects, such as catalepsy, ptosis, hypolocomotin, etc.

Turning to `COc1cc(N)c(Cl)cc1C(=O)NCC1CN(Cc2ccccc2)CCO1` (stereo not drawn) [18(2), 4-amino-N-[(4-benzyl-2-morpholinyl)methyl]-5-chloro-2-methoxybenzamide], in the data set on gastric emptying, the change in vivo at 2 mg/kg was determined as 39.3%. Further, in the data set with central nervous system, the CNS effect entry is “-”. Take `CCOc1cc(N)c(Cl)cc1C(=O)NCC1CN(Cc2ccccc2)CCO1` (stereo not drawn) [63(1), 4-amino-N-[(4-benzyl-2-morpholinyl)methyl]-5-chloro-2-ethoxybenzamide]: in the data set with gastric emptying, the change in vivo at 0.5 mg/kg came out at 33.9% and the change in vivo at 2 mg/kg is 54.4%. In addition, the CNS effect result with central nervous system is “-”. On to `CCOc1cc(N)c(Cl)cc1C(=O)NCC1CN(Cc2ccccc2Cl)CCO1` (stereo not drawn) [66(1)], for which the change in vivo at 2 mg/kg in the data set with gastric emptying worked out at 41.3%. In the data set on central nervous system, the CNS effect result is on record as “-”.

As to `CCOc1cc(N)c(Cl)cc1C(=O)NCC1CN(Cc2ccc(Cl)cc2)CCO1` (stereo not drawn) [68(1)], the change in vivo at 2 mg/kg in the data set with gastric emptying came to 62.7%. Further, the CNS effect entry with central nervous system is listed as “-”. As to `CCOc1cc(N)c(Cl)cc1C(=O)NCC1CN(Cc2cccnc2)CCO1` (stereo not drawn) [80(1)], in the data set on gastric emptying, the change in vivo at 2 mg/kg is 65.6%. Moreover, in the data set with central nervous system, the CNS effect entry is on record as “-”. As for `CCN(CC)CCNC(=O)c1cc(Cl)c(N)cc1OC` [A, 4-amino-5-chloro-N-[(2-diethylamino)ethyl]-2-methoxybenzamide, reference compound], in the data set with gastric emptying, the change in vivo at 2 mg/kg was found to be 20.7%, the change in vivo at 5 mg/kg is 25.7% and the change in vivo at 10 mg/kg stood at 30.7%. Regarding `CCN1CCOC(CNC(=O)c2ccccc2OC)C1.O=C(O)/C=C/C(=O)O` (stereo not drawn) [Compound B, N-[(4-Ethyl-2-morpholinyl)methyl]-2-methoxybenzamide fumarate, reference compound], the “gastric emptying enhancing effect (in words)” value in the data set on gastric emptying (even at a dose of 10.0 mg/kg p.o.) is on record as “did not show any effect”. For the same molecule, in the data set on gastric emptying, the change in vivo at 2 mg/kg was 3.8%, the change in vivo at 5 mg/kg is -1.9% and the change in vivo at 10 mg/kg came out at 2.1%. Consider `CCOc1cc(N)c(Cl)cc1C(=O)NCC1CN(Cc2ccc(F)cc2)CCO1` (stereo not drawn) [Example 1(1), 4-amino-5-chloro-2-ethoxy-N-[[4-(4-fluorobenzyl)-2-morpholinyl]methyl]benzamide], for which, in the data set with gastric emptying, the change in vivo at 0.2 mg/kg was determined as 39.5% and the change in vivo at 2 mg/kg was 49.8%. In addition, the CNS effect entry with central nervous system is listed as “-”. Take `COc1cc(N)c(Cl)cc1C(=O)NCC1CN(Cc2ccc(C#N)cc2)CCO1` (stereo not drawn) [Example 6, 4-amino-5-chloro-N-[[4-(4-cyanobenzyl)-2-morpholinyl]methyl]-2-methoxybenzamide]: in the data set on gastric emptying, the change in vivo at 2 mg/kg came to 49.2%. In the data set with central nervous system, the CNS effect entry was “-”.

For the molecule `CCOc1cc(NC(C)=O)c(Cl)cc1C(=O)NCC1CN(Cc2ccc(F)cc2)CCO1` (stereo not drawn) [Example 7, 4-acetylamino-5-chloro-2-ethoxy-N-[[4-(4-fluorobenzyl)-2-morpholinyl]methyl]benzamide], in the data set with gastric emptying, the change in vivo at 2 mg/kg was 74%. Turning to `CCOc1cc(N)c(Cl)cc1C(=O)NCCC1CN(Cc2ccccc2)CCO1` (stereo not drawn) [Example 8, 4-amino-N-[2-(4-benzyl-2-morpholinyl)ethyl]-5-chloro-2-ethoxybenzamide], in the data set with gastric emptying, the change in vivo at 2 mg/kg worked out at 44.9%. For the same molecule, the CNS effect result in the data set on central nervous system is “-”. In the case of `CCOc1cc(N)c(Cl)cc1C(=O)NCC1CN(Cc2ccccc2Cl)CC(C)O1` (stereo not drawn) [Example 14, 4-amino-5-chloro-N-[[4-(2-chlorobenzyl)-6-methyl-2-morpholinyl]methyl]-2-ethoxybenzamide], the change in vivo at 2 mg/kg with gastric emptying was 47.5%. For the molecule `CCOc1cc(N)c(Cl)cc1C(=O)NCC1CN(Cc2ccccc2)CCCO1` (stereo not drawn) [Example 16, 4-amino-N-[(4-benzyl-hexahydro-1,4-oxazepin-2-yl)methyl]-5-chloro-2-ethoxybenzamide], the change in vivo at 2 mg/kg in the data set on gastric emptying turned out to be 47.3%. Same read-out and setting: as for `COc1cc(N)c(Cl)cc1C(=O)NCC1CN(Cc2c(F)c(F)c(F)c(F)c2F)CCO1` (stereo not drawn) [Example 25], the figure is 39.1%; as for `COc1cc(N)c(Cl)cc1C(=O)NCC1CN(Cc2cccc(C(F)(F)F)c2)CCO1` (stereo not drawn) [Example 28], 42.8%; as for `COc1cc(N)c(Cl)cc1C(=O)NCC1CN(Cc2cccc(C#N)c2)CCO1` (stereo not drawn) [Example 33], 42.3%.

Turning to `COc1cc(N)c(Cl)cc1C(=O)NCC1CN(C(C)c2ccccc2)CCO1` (stereo not drawn) [Example 37], the change in vivo at 2 mg/kg in the data set with gastric emptying came to 42.2%. As for `COc1cc(N)c(Cl)cc1C(=O)NCC1CN(CCCOc2ccc(Cl)cc2)CCO1` (stereo not drawn) [Example 52], the change in vivo at 2 mg/kg in the data set on gastric emptying is 52.5%. Consider `CCOc1cc(N)c(Cl)cc1C(=O)NCC1CN(Cc2ccccc2F)CCO1` (stereo not drawn) [Example 64], for which the change in vivo at 2 mg/kg in the data set on gastric emptying worked out at 59.9%. Turning to `CCOc1cc(N)c(Cl)cc1C(=O)NCC1CN(Cc2cccc(F)c2)CCO1` (stereo not drawn) [Example 65], the change in vivo at 2 mg/kg in the data set on gastric emptying was found to be 54.1%.

In the case of `CCOc1cc(N)c(Cl)cc1C(=O)NCC1CN(Cc2cccc(Cl)c2)CCO1` (stereo not drawn) [Example 67], the change in vivo at 2 mg/kg in the data set with gastric emptying came out at 57.5%. Further, the CNS effect result in the data set on central nervous system is “-”. For the molecule `CCOc1cc(N)c(Cl)cc1C(=O)NCC1CN(Cc2cccc(C(F)(F)F)c2)CCO1` (stereo not drawn) [Example 70], the change in vivo at 2 mg/kg with gastric emptying amounted to 57.8%. Further, the CNS effect entry in the data set on central nervous system is “-”. Regarding `CCOc1cc(N)c(Cl)cc1C(=O)NCC1CN(Cc2ccc(C#N)cc2)CCO1` (stereo not drawn) [Example 73], in the data set with gastric emptying, the change in vivo at 0.5 mg/kg stood at 44.2% and the change in vivo at 2 mg/kg amounted to 46.2%.

For `CCOc1cc(N)c(Cl)cc1C(=O)NCC1CN(Cc2ccc(Cl)cc2[N+](=O)[O-])CCO1` (stereo not drawn) [Example 74], the change in vivo at 2 mg/kg with gastric emptying came out at 46.7%. The CNS effect result in the data set on central nervous system is listed as “-”. Regarding `CCOc1cc(N)c(Cl)cc1C(=O)NCC1CN(CCCCc2ccccc2)CCO1` (stereo not drawn) [Example 76], the change in vivo at 2 mg/kg with gastric emptying came to 47.1%. With `CCOc1cc(N)c(Cl)cc1C(=O)NCC1CN(C(C)c2ccccc2)CCO1` (stereo not drawn) [Example 77], the change in vivo at 2 mg/kg in the data set with gastric emptying was 43.8%. Consider `CCOc1cc(N)c(Cl)cc1C(=O)NCC1CN(Cc2ccccn2)CCO1` (stereo not drawn) [Example 79], for which the change in vivo at 2 mg/kg in the data set on gastric emptying turned out to be 51%. Take `CCOc1cc(N)c(Cl)cc1C(=O)NCC1CN(Cc2ccncc2)CCO1` (stereo not drawn) [Example 81]: in the data set on gastric emptying, the change in vivo at 2 mg/kg amounted to 52.9%. The CNS effect entry with central nervous system is “-”. For `CCCOc1cc(N)c(Cl)cc1C(=O)NCC1CN(Cc2ccccc2)CCO1` (stereo not drawn) [Example 86], in the data set with gastric emptying, the change in vivo at 2 mg/kg stood at 55%. Regarding `CCCCOc1cc(N)c(Cl)cc1C(=O)NCC1CN(Cc2ccccc2)CCO1` (stereo not drawn) [Example 88, 4-amino-N-[(4-benzyl-2-morpholinyl)methyl]-2-butoxy-5-chlorobenzamide], in the data set with gastric emptying, the change in vivo at 0.2 mg/kg stood at 32.8%, the change in vivo at 0.5 mg/kg is 42.9% and the change in vivo at 2 mg/kg was determined as 53.7%. In the data set on central nervous system, the CNS effect result was “-”. `CCCCOc1cc(N)c(Cl)cc1C(=O)NCC1CN(Cc2ccc(F)cc2)CCO1` (stereo not drawn) [Example 89]: the change in vivo at 2 mg/kg in the data set on gastric emptying amounted to 49.9%. Further, in the data set on central nervous system, the CNS effect result was “+”. Regarding `CCCCOc1cc(N)c(Cl)cc1C(=O)NCC1CN(Cc2ccccc2Cl)CCO1` (stereo not drawn) [Example 90], the change in vivo at 2 mg/kg in the data set with gastric emptying came out at 55.4%. Moreover, the CNS effect entry in the data set on central nervous system is given as “-”. Turning to `CC(C)COc1cc(N)c(Cl)cc1C(=O)NCC1CN(Cc2ccccc2)CCO1` (stereo not drawn) [Example 91], the change in vivo at 2 mg/kg in the data set with gastric emptying turned out to be 51.2%. Further, in the data set with central nervous system, the CNS effect result is on record as “-”. Consider `CCCCCOc1cc(N)c(Cl)cc1C(=O)NCC1CN(Cc2ccccc2)CCO1` (stereo not drawn) [Example 92], for which, in the data set on gastric emptying, the change in vivo at 2 mg/kg was found to be 41%. As for `CC(C)CCOc1cc(N)c(Cl)cc1C(=O)NCC1CN(Cc2ccccc2)CCO1` (stereo not drawn) [Example 93, 4-amino-N-[(4-benzyl-2-morpholinyl)methyl]-5-chloro-2-isopentyloxybenzamide], in the data set on gastric emptying, the change in vivo at 0.5 mg/kg turned out to be 46.9% and the change in vivo at 2 mg/kg came out at 44.2%. The CNS effect entry in the data set with central nervous system was “-”. Turning to `CC(C)CCOc1cc(N)c(Cl)cc1C(=O)NCC1CN(Cc2ccc(F)cc2)CCO1` (stereo not drawn) [Example 94], in the data set with gastric emptying, the change in vivo at 2 mg/kg came to 52%. Further, the CNS effect entry with central nervous system is listed as “-”. For the molecule `CC(C)CCOc1cc(N)c(Cl)cc1C(=O)NCC1CN(Cc2ccccc2Cl)CCO1` (stereo not drawn) [Example 95], in the data set with gastric emptying, the change in vivo at 0.2 mg/kg was found to be 34.7% and the change in vivo at 2 mg/kg worked out at 61.6%. Further, the CNS effect result with central nervous system was “-”. As to `Nc1cc(OCCCl)c(C(=O)NCC2CN(Cc3ccccc3)CCO2)cc1Cl` (stereo not drawn) [Example 102], the change in vivo at 2 mg/kg in the data set with gastric emptying worked out at 46.8%. `Nc1cc(OCC2CC2)c(C(=O)NCC2CN(Cc3ccccc3)CCO2)cc1Cl` (stereo not drawn) [Example 111]: the change in vivo at 2 mg/kg in the data set with gastric emptying came to 48.7%.

As for `C=CCOc1cc(N)c(Cl)cc1C(=O)NCC1CN(Cc2ccccc2)CCO1` (stereo not drawn) [Example 115], the change in vivo at 2 mg/kg in the data set on gastric emptying is 45.6%.

As for `C#CCOc1cc(N)c(Cl)cc1C(=O)NCC1CN(Cc2ccccc2)CCO1` (stereo not drawn) [Example 120], the change in vivo at 2 mg/kg in the data set on gastric emptying was 40.6%.

As to `COc1cc(N(C)C)c(Cl)cc1C(=O)NCC1CN(Cc2ccccc2)CCO1` (stereo not drawn) [Example 130], the change in vivo at 2 mg/kg in the data set with gastric emptying worked out at 51.8%.

With `CCOc1cc(N(C)C)c(Cl)cc1C(=O)NCC1CN(Cc2ccccc2)CCO1` (stereo not drawn) [Example 132], in the data set with gastric emptying, the change in vivo at 2 mg/kg is 50.6%. As for `CCOc1cc(N)c(Cl)cc1C(=O)NCC1C[N+]([O-])(Cc2ccccc2Cl)CCO1` (stereo not drawn) [Example 244, 4-amino-5-chloro-N-[[4-(2-chlorobenzyl)-2-morpholinyl]methyl]-2-ethoxybenzamide N-oxide], the change in vivo at 2 mg/kg in the data set with gastric emptying stood at 51.8%.
